# Measurements as given in US10005803B2, “Crystalline forms of fosnetupitant” (Helsinn Healthcare SA, priority 2015, dated 2018).
# “Also recorded” adds a separate entry of the source.
# Tests used:
# [1] = Gravimetric Vapor Sorption (GVS); format: physicochemical; conditions: for Overall moisture uptake: 0% to 90% RH (Form I: % w/w, whole studied RH range up to 90% RH); for Moisture uptake / gradual Wt increase: from 0% to 50% RH; for Largest Wt increase: from 70 to 90% RH; for Hygroscopicity class by GVS: weight increase at 80% RH
# Protocol: 1.7.6 Gravimetric Vapor Sorption (GVS)
# Approximately 20 mg of sample was placed into a wire-mesh vapor sorption balance pan and loaded into an ‘IgaSorp’ vapor sorption balance (Hiden Analytical Instruments). The sample was then dried by maintaining a 0% humidity environment until no further weight change was recorded. Subsequently, the sample was subjected to a ramping profile from 0-90% RH at 10% RH increments, maintaining the sample at each step until equilibration had been attained (99.5% step completion). Upon reaching equilibration, the % RH within the apparatus was ramped to the next step and the equilibration procedure repeated. After completion of the sorption cycle, the sample was dried using the profile from 85-5% RH at 10% RH increments same procedure. At last, the sample was dried by maintaining a 0% humidity environment until no further weight change was recorded. The weight change during the sorption/desorption cycles were then monitored, allowing the hygroscopic nature of the sample to be determined.
# [2] = Stability studies at 40° C./75% RH (open vial); format: physicochemical; conditions: 1 week (7 days), checked by XRPD, Raman
# Protocol: The polymorphs identified were stored at 40° C./75% RH (open vial). Each sample was put in a glass vial un-capped. Analysis was carried out at 7 days by XRPD and Raman for any potential change in crystalline structure.
# [3] = Protocol: The solubility of the starting compound was determined in 25 pharmaceutically acceptable solvents (class II and III) of differing polarity. The procedure was as follows:
# Approximately 20 mg of material was weighed out into each glass vial.
# The mixture was stirred at RT for 5-10 minutes. Visual checks were then made for solubility.
# If no solubility was achieved then steps (ii) and (iii) were repeated until either the solubility was achieved or the 50 volume aliquots of that solvent were added.
# Solubility was then approximated.
# Solubility was finally checked at the elevated temperature (40° C.).
Compound,Overall moisture uptake [1],Loss of weight in absorption process ([1]; at 80% RH),Moisture uptake / gradual Wt increase [1],Largest Wt increase [1],Hygroscopicity class by GVS [1],Generated form (change in crystalline structure) [2],Solubility (in words) [3],Form change detected by GVS ([1]; sorption/desorption cycle 0-90% RH),Sharp Wt increase in absorption ([1]; @10% RH),Loss of weight in the absorption process ([1]; at 60% RH),Moisture uptake ([1]; from 0 to 70% RH),"Gradual Wt increases, total ([1]; from 20 to 70% RH)"
"Cc1ccccc1-c1cc(N2CC[N+](C)(COP(=O)(O)O)CC2)ncc1N(C)C(=O)C(C)(C)c1cc(C(F)(F)F)cc(C(F)(F)F)c1.Cl.[Cl-] [Form III, 4-(5-(2-(3,5-bis(trifluoromethyl)phenyl)-N,2-dimethylpropanamido)-4-(o-tolyl)pyridin-2-yl)-1-methyl-1-((phosphonooxy)methyl)piperazin-1-ium]",circa 25%,~5.82 % w/w,circa 5.19%,circa 8.63 % w/w,very hygroscopic (>15%@80% RH),changes in crystalline structures; also recorded: changed,,,,,,
"Cc1ccccc1-c1cc(N2CC[N+](C)(COP(=O)(O)O)CC2)ncc1N(C)C(=O)C(C)(C)c1cc(C(F)(F)F)cc(C(F)(F)F)c1.Cl.[Cl-] [Form I, 4-(5-(2-(3,5-bis(trifluoromethyl)phenyl)-N,2-dimethylpropanamido)-4-(o-tolyl)pyridin-2-yl)-1-methyl-1-((phosphonooxy)methyl)piperazin-1-ium]",about 45%,,about 5%,,very hygroscopic (>15%@80% RH),changes in crystalline structures; also recorded: changed,very poor solubility,No form changes were detected,,,,
"Cc1ccccc1-c1cc(N2CC[N+](C)(COP(=O)(O)O)CC2)ncc1N(C)C(=O)C(C)(C)c1cc(C(F)(F)F)cc(C(F)(F)F)c1.Cl.[Cl-] [Form II, 4-(5-(2-(3,5-bis(trifluoromethyl)phenyl)-N,2-dimethylpropanamido)-4-(o-tolyl)pyridin-2-yl)-1-methyl-1-((phosphonooxy)methyl)piperazin-1-ium]",circa 12.75%,,,circa 8.63 % w/w,hygroscopic (15%>Wt increase>2%%@80% RH),not and No change,,,circa 2.92 % w/w,~0.2 % w/w,circa 4.12%,circa 1.2 % w/w
